# Laboratory results from ChEMBL document CHEMBL4665834 (J Med Chem, 2020).
# Experiments:
# [1] = Maximum oral bioavailability in dog hepatocytes based well stirred liver model at 1 uM measured after 2 to 90 mins by LC-MS/MS analysis; format: ADME, Canis lupus familiaris, Hepatocyte; details: time 2-90 min, read-out: Fmax
# [2] = Solubility of compound in water using crystalline form of sample; format: physicochemical
# [3] = Maximum oral bioavailability in human hepatocytes based well stirred liver model at 1 uM measured after 2 to 90 mins by LC-MS/MS analysis; format: ADME, Hepatocyte; details: time 2-90 min, read-out: Fmax
# [4] = target: Prostaglandin E2 receptor EP4 subtype (Homo sapiens, UniProt P35408); assay: Displacement of [3H]prostaglandin E2 from full-length recombinant human EP4 receptor expressed in HEK293 cell membranes measured after 120 mins by scintillation counting method
# Sequence of Prostaglandin E2 receptor EP4 subtype (P35408 whole entry): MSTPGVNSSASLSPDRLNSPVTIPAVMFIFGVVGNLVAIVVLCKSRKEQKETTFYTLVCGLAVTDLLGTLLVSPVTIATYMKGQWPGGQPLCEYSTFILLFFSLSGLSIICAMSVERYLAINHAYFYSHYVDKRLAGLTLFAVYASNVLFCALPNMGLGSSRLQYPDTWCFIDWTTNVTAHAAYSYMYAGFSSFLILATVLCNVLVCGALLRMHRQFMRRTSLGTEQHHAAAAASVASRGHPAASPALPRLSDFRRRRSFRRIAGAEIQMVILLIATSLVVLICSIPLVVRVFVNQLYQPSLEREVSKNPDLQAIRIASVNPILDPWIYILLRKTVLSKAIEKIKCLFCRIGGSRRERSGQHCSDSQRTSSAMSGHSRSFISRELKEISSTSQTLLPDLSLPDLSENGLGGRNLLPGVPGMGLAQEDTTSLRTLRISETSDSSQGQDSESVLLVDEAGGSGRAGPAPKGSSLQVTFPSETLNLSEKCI
# [5] = Toxicity in Wistar rat up to 300 mg/kg/day, po administered for 14 days; format: organism-based; details: in vivo, 336 h, time 14 day
# [6] = Clearance in Wistar rat at 1 mg/kg, iv administered as bolus dose or 3 mg/kg, po administered via gavage by LC-MS/MS analysis; format: ADME, organism-based; details: in vivo
# [7] = target: Prostaglandin F2-alpha receptor (Rattus norvegicus, UniProt P43118); assay: Antagonist activity at rat FPR stably expressed in CHO cells assessed as inhibition of PGF2alpha-induced calcium flux preincubated for 10 mins followed by PGF2alpha stimulation and measured for 120 secs by fluo-8 AM dye based fluorescence assay; format: cell-based
# Sequence of Prostaglandin F2-alpha receptor (Rattus norvegicus, UniProt P43118) (P43118 whole entry): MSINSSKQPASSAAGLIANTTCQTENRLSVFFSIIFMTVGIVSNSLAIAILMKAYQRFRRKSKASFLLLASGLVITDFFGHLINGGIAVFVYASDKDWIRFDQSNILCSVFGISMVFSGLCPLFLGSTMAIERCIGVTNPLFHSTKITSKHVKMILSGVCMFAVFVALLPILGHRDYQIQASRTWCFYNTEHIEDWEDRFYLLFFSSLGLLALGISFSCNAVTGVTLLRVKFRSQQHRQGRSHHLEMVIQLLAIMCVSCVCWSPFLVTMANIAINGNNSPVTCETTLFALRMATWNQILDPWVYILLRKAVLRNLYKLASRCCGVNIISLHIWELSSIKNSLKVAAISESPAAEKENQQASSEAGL
# [8] = Solubility of compound in phosphate buffer at pH 8 using crystalline form of sample; format: physicochemical
# [9] = target: Prostaglandin F2-alpha receptor (Mus musculus, UniProt P43117); assay: Antagonist activity at FPR in mouse NIH3T3 cells assessed as inhibition of PGF2alpha-induced MCP1 production measured after 24 hrs by Bio-Rad assay; format: cell-based
# Sequence of Prostaglandin F2-alpha receptor (Mus musculus, UniProt P43117) (P43117 whole entry): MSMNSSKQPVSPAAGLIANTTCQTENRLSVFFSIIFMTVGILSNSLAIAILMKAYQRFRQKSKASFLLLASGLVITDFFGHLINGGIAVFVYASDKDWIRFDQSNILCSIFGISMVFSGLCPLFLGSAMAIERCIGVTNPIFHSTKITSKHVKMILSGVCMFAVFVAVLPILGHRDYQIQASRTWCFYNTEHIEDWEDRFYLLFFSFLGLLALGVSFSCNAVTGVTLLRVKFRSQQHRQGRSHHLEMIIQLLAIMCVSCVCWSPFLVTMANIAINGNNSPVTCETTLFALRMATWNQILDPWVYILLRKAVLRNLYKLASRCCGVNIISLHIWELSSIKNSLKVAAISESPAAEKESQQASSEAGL
# [10] = Toxicity in Beagle dog up to 1 g/kg/day, po administered for 14 days; format: organism-based, Canis lupus familiaris; details: in vivo, 1000 mg/kg, 336 h, time 14 day
# [11] = Maximum oral bioavailability in rat hepatocytes based well stirred liver model at 1 uM measured after 2 to 90 mins by LC-MS/MS analysis; format: ADME, Hepatocyte; details: time 2-90 min, read-out: Fmax
# [12] = Drug metabolism in human hepatocytes assessed as oxidation at the pyrrolidine ring at 1 uM measured after 1 to 4 hrs by LC-MS/MS analysis; format: ADME, cell-based, Hepatocyte; details: time 1-4 hrs
# [13] = Volume of distribution at steady state in Balb/c mouse at 1 mg/kg, iv administered as bolus dose or 3 mg/kg, po administered via gavage by LC-MS/MS analysis; format: ADME, organism-based; details: in vivo, read-out: Vdss
smiles,measurement,setting,value
Cc1c(N2CCCC2)nc2ccc(Br)cc2c1C(=O)NC[C@H](CCC(=O)O)c1ccccc1Cl [BAY-6672],Fh at 1 µM,[1],18%
same,solubility,[2],< 1 µg/mL
same,Fh at 1 µM,[3],66%
same,IC50,[4],> 9400 nM
same,Activity,[5],Non-Toxic
same,clearance,[6],11.7 mL/min/kg
same,IC50,[7],11 nM
same,solubility thermodynamic,[8],290 µg/mL
same,IC50,[9],18 nM
same,Activity,[10],Non-Toxic
same,Fh at 1 µM,[11],67%
same,Drug metabolism,[12],Metabolite_Detected
same,Vd,[13],2 L/kg
